From patent US10786481B2, “Hydroquinone compounds, preparation methods therefor, and use in anti-tumor or immunomodulation therapy” (Biomedical Analysis Center, Academy of Military Medical …, priority 2016, dated 2020)
Read-outs that look alike come from different tables or passages of the source.

What was measured:
[1] = system: monocytes; conditions: via inhibition of ROS generation; Cell Research 2013, 23:898-914; cited from earlier work
[2] = system: immortalized mice bone marrowmacrophages (IBMM); experiment: Cytotoxicity, MTS method, IBMM cell; format: cell-based; conditions: Mus musculus, Bone marrow macrophage, read-out: IC50(mM) IBMM cell
Description: (§1) The toxicity of compounds is detected with MTS method in the immortalized mice bone marrowmacrophages (IBMM), mice embryonic fibroblast (NIH3t3) and humanized embryonic nephrocyte.

[3] = system: mice embryonic fibroblast (NIH3t3); experiment: Cytotoxicity, MTS method, NIH3T3 cell; format: cell-based; conditions: Mus musculus
Description: as §1

[4] = system: humanized embryonic nephrocyte (HEK293 cell); experiment: Cytotoxicity, MTS method, HEK293 cell; format: cell-based; conditions: Homo sapiens
Description: as §1

[5] = Release experiment of target compound in human plasma; conditions: 37° C., 5 min to 9 h
Procedure: Mobile phase: gradient elution; A: water; B: methanol;
Chromatographic column: CAPCEL PAK MF PH-1;
Detecting instrument: TQ-S; ion source: APCI; ion detection mode: MRM;
Dissolving the target compound with DMSO, then diluting to 5 μg/mL with the normal saline of 0.9%. The human blank plasma after subpackage is preserved at −70° C., unfreezing in a refrigerator at 4° C. when used. Take 20 μL of the blank plasma, adding 20 μL of the target compound solution as above formulated, vortexing for 15 s, and left it in the water bath at 37° C. […] Take the supernatant and inject 10 μL for detection.

[6] = system: mice; experiment: Acute toxicity in mice, up-down method; format: in vivo; conditions: mice, intragastric
Procedure: (§2) Detecting the acute toxicity of some of the compounds by using up-down method. Intragastric administrating a drug to the mice of 20˜22 g; lyase is corn oil, fasting for 12 h before administration, with free drinking.

[7] = Acute toxicity in mice, up-down method; format: in vivo; conditions: mouse, in vivo
Procedure: as §2

[8] = Drug metabolism tests of BHA in vivo; set-up: species or system mice; conditions: for half-life: mouse, plasma
[9] = system: Her2 breast cancer; experiment: Mice model with Her2 breast cancer; format: in vivo
[10] = system: mice; experiment: Toxicology experiment of BHA in mice; format: in vivo
[11] = system: macrophages M2; experiment: Polarization of macrophages M2; conditions: FIG. 1
[12] = system: lung cancer in K-rasLA2 model mice; conditions: fodder of 0.75% BHA; Cell Research 2013, 23:898-914; cited from earlier work
[13] = NIH3T3, MTS method, read-out: IC50(mM) NIH3T3 cell
[14] = HEK293, MTS method, read-out: IC50(mM) HEK293 cell
[15] = po, mice, intragastric, corn oil, up-down method, unit inferred

Molecule | release of BHA in human plasma [5] | IC50 ([2]; MTS method) | IC50 [3, 13] | IC50 [4, 14] | other results
CC1(C)CCCC(C)(C)N1[O] [TEMPO] |  |  |  |  | differentiation of monocytes toward M2 macrophages [1]: inhibit differentiation of monocytes toward M2 macrophages
COc1cc(C(C)=O)ccc1O [Apocynin] |  |  |  |  | differentiation of monocytes toward M2 macrophages [1]: inhibit differentiation of monocytes toward M2 macrophages
COc1ccc(OC(=O)Cc2cc(F)c(F)cc2F)c(C(C)(C)C)c1 [XH2041-2, (2-tert-butyl-4-methoxyphenol) 2,4,5-trifluorophenylacetate] | releases BHA | 0.156 mM | 0.26 mM | 0.349 mM | 
COc1ccc(OC(=O)C2CCCC2)c(C(C)(C)C)c1 [XH2039-6, (2-tert-butyl-4-methoxyphenol) cyclopentanecarboxylate] | releases BHA | 0.171 mM | 0.229 mM | 0.136 mM | 
(2-tert-butyl-4-methoxyphenol) morpholin-4-yl acetate [XH2044-2] | releases BHA |  |  |  | acute toxicity compared with BHA [6]: lower than that of 2-tert-butyl-4-methoxyphenol-oxyl (BHA); LD50 ([6]; corn oil, up-down method, unit inferred): > 1300 mg/kg
CC(=O)N[C@@H](CS)C(=O)O [NAC] |  |  |  |  | differentiation of monocytes toward M2 macrophages [1]: inhibit differentiation of monocytes toward M2 macrophages
CCCCCCCC(=O)Oc1ccc(OC)cc1C(C)(C)C [XH2040-4, (2-tert-butyl-4-methoxyphenol) octanoate] | releases BHA | 0.198 mM | 0.366 mM | 0.283 mM | 
COc1ccc(OC(=O)Cc2cccs2)c(C(C)(C)C)c1 [XH2038-5, (2-tert-butyl-4-methoxyphenol) 2-thiopheneacetate] | releases BHA | 0.202 mM | 0.146 mM | 0.266 mM | 
COc1ccc(OC(C)=O)c(C(C)(C)C)c1 [XH2006, 2-tert-butyl-4-methoxyphenol acetate] | releases BHA | 0.443 mM | 0.021 mM | 0.118 mM | LD50 [7, 15]: > 1200 mg/kg; acute toxicity compared with BHA [6]: lower than that of 2-tert-butyl-4-methoxyphenol-oxyl (BHA)
COc1ccc(OC(=O)c2cc3ccccc3[nH]2)c(C(C)(C)C)c1 [XH2038-3, (2-tert-butyl-4-methoxyphenol) 2-indoleformate] | releases BHA | 0.263 mM | 0.517 mM | 0.205 mM | 
COc1ccc(OC(=O)CC2CCCCC2)c(C(C)(C)C)c1 [XH2039-5, (2-tert-butyl-4-methoxyphenol) cyclohexylacetate] | releases BHA | 0.067 mM | 0.106 mM | 0.087 mM | 
COc1ccc(OC(=O)CC(F)(F)F)c(C(C)(C)C)c1 [XH2044-1, (2-tert-butyl-4-methoxyphenol) 3,3,3-trifluoropropionate] | releases BHA | > 0.7 mM | 0.353 mM | 0.206 mM | 
COc1ccc(OC(=O)c2ccncc2)c(C(C)(C)C)c1 [XH2011, 2-tert-butyl-4-methoxyphenol isonicotinate] | releases BHA | 0.119 mM | 0.0326 mM | 0.311 mM | LD50 [7, 15]: > 1300 mg/kg; acute toxicity compared with BHA [6]: lower than that of 2-tert-butyl-4-methoxyphenol-oxyl (BHA)
COc1ccc(OC(=O)CC2CC2)c(C(C)(C)C)c1 [XH2040-2, (2-tert-butyl-4-methoxyphenol) cyclopropylacetate] | releases BHA | 0.202 mM | 0.232 mM | 0.237 mM | 
COc1ccc(O)c(C(C)(C)C)c1 [BHA, 2-tert-butyl-4-methoxyphenol] |  |  |  |  | IC50 [2]: 0.218 mM; IC50 ([3]; NIH3T3, read-out: IC50(mM) NIH3T3 cell): 0.267 mM; IC50 ([4]; HEK293, read-out: IC50(mM) HEK293 cell): 0.325 mM; LD50 ([7]; oral, acute toxicity in mice, as restated): 1100 mg/kg; LD50 [7, 15]: 1100 mg/kg; half-life ([8]; FIG. 2A and B, read-out: half-life of BHA in vivo): 30 to 60 min; half-life ([8]; mice, oral, read-out: T112 (half-life)): 20 min; time to peak ([8]; oral): 5 min; anti-tumor effects ([9]; HER2 mice model, 50-1000 mg/kg BW dosed in portions): obvious anti-tumor effects; metastasis in head ([9]; Her2 tumor model with the breast cancer, FIG. 1A): not observed; toxic signs ([10]; 600 mg/kg, recover after half an hour): central effect of partially “hangover” state; mortality ([10]; 1100 mg/kg): Half of the mice with 1100 mg/kg are caused to die; time until symptoms of the toxic reaction disappear in survival mice ([10]; 1100 mg/kg): 30 to 60 min; toxic effect, long term dosing ([10]; low dose, long term dosed for two years): toxic effect is not seen; polarization effect of macrophages M2 [11]: inhibits the polarization effect of macrophages M2; generation of lung cancer [12]: completely inhibited; differentiation of monocytes toward M2 macrophages [1]: inhibit differentiation of monocytes toward M2 macrophages
COc1ccc(OC(=O)c2cccnc2)c(C(C)(C)C)c1 [XH2010, 2-tert-butyl-4-methoxyphenol nicotinate] | releases BHA | 0.175 mM | 0.186 mM | 0.207 mM | LD50 [7, 15]: > 1200 mg/kg; acute toxicity compared with BHA [6]: lower than that of 2-tert-butyl-4-methoxyphenol-oxyl (BHA)
C#CC(=O)Oc1ccc(OC)cc1C(C)(C)C [XH2039-2, (2-tert-butyl-4-methoxyphenol) propiolate] | releases BHA | 0.159 mM | 0.248 mM | 0.125 mM | 

More lines, main results first:

release of BHA in human plasma [5] | Molecule | IC50 ([2]; MTS method) | IC50 [3, 13] | IC50 [4, 14] | other results
releases BHA | CC#CC(=O)Oc1ccc(OC)cc1C(C)(C)C [XH2019, 2-tert-butyl-4-methoxyphenol butynoate] | 0.024 mM | 0.0476 mM | 0.037 mM | 
releases BHA | COc1ccc(OC(=O)c2ccccc2)c(C(C)(C)C)c1 [XH2005, 2-tert-butyl-4-methoxyphenol benzoate] | 0.439 mM | 0.0875 mM | 0.082 mM | 
releases BHA | COc1ccc(OC(=O)Cc2ccc(OC)c(OC)c2)c(C(C)(C)C)c1 [XH2018, (2-tert-butyl-4-methoxyphenol) 3,4-dimethoxyphenylacetate] | 0.13 mM | 0.333 mM | 0.386 mM | 
releases BHA | COc1ccc(OC(=O)Cc2c[nH]c3ccccc23)c(C(C)(C)C)c1 [XH2023, (2-tert-butyl-4-methoxyphenol) (1H-indole-3-yl)acetate] | 0.0065 mM | 0.065 mM | 0.03 mM | 
